Results published in patent US20040224907A1, “Compositions and methods for reversal of drug resistance” (priority 2001, published 2004).

How the values were obtained:
Pgp [1] = assay: Western blotting of Pgp protein levels in BE(2)-C cells (antibody C219); format: cell-based; conditions: 10 μM (FIG. 3)
Procedure: FIG. 3. depicts Western Blot showing time-dependent reduction of Pgp expression in BE(2)—C cells following 10 μM (+)pentazocine treatment.
(§1) Protein levels were monitored by Western blotting, using monoclonal antibodies specific to Pgp (e.g., C219).

Pgp [2] = assay: Western blotting of Pgp protein levels in ADX cells (antibody C219); format: cell-based, Chinese hamster; conditions: 10 μM (FIG. 4)
From the text: as §1

Pgp mRNA = assay: RT-PCR with 32P-ATP of Pgp mRNA levels in BE(2)-C neuroblastoma cell line; format: cell-based; set-up: reduction in Pgp mRNA levels, dose dependence: dose or concentration left out as unconfirmed; conditions: BE(2)-C cells
Procedure: (§2) RT-PCR was performed and [^32P]ATP was incorporated into the PCR reaction. Radioactivity was measured following gel separation of PCR product.
as §2
Tests were performed in a BE(2)—C neuroblastoma cell line. This cell line was used to test the ability of (+)pentazocine to reduce levels of Pgp mRNA and corresponding protein expression in a dose-dependent manner. Pgp levels were tested at the mRNA level by reverse-transcription polymerase chain reaction (RT-PCR) in the presence of ^32P-ATP. Incorporation of the radiolabeled nucleotide was measured following electrophoresis of the PCR product.

mdr-1 gene = conditions: human neuroblastoma cells; cited from earlier work

| SMILES | time of maximal decrease of Pgp protein levels (Pgp [1]) | time of maximal decrease of Pgp protein levels (Pgp [2]) | decrease in Pgp mRNA (Pgp mRNA; 1 μM) | time of maximal reduction in Pgp mRNA levels post-treatment (Pgp mRNA; 10 μM (FIG. 1)) | reduction in Pgp mRNA levels, dose dependence (Pgp mRNA; concentrations (FIG. 2)) | effect on expression of the mdr-1 gene (mdr-1 gene) |
| --- | --- | --- | --- | --- | --- | --- |
| CC(C)=CCN1CCC2(C)c3cc(O)ccc3CC1C2C (single isomer, unassigned; (+)) [(+)pentazocine] | 12 to 18 h | 12 to 18 h | two-fold decrease | 12 to 18 h | dose-dependent | – |
| Br.Br.CN(CCc1ccc(Cl)c(Cl)c1)[C@H]1CCCC[C@H]1N1CCCC1 [BD 737] | – | – | – | – | – | no significant effect |
